# Reference: patent publication US20190359653A1, “SELECTIVE PEPTIDE INHIBITORS OF FRIZZLED” (Genentech, Inc., priority 2016, published 2019)
# System: Herceptin
# Experiment: spot phage ELISA against Herceptin (off-target)
# Type: binding
# Settings: for SIGNAL: NOISE RATIO HERCEPTIN: spot phage ELISA signal against Herceptin over ELISA signal against BSA, Tables 3 and 4; for HERCEPTIN S/W: signal minus noise (BSA); for HERCEPTIN S/W / HERCEPTIN S/N: Table 5; for HERCEPTIN S/N: signal to noise ratio
# Description: Phage pools of linear peptide libraries (Stanger, K. et al. Allosteric peptides bind a caspase zymogen and mediate caspase tetramerization. Nat Chem Biol 8, 655-660 (2012)) were cycled through rounds of binding selections with hFZD7 CRD-Fc following standard protocols (Tonikian et al. (2007) Nat Protoc 2, 1368-1386). Herceptin (10 μM) was included in sorting solution to block potential Fc binders during all rounds of sorting. After four rounds of binding selection, individual phage clones were analyzed in a high-throughput spot phage ELISA using plate-immobilized FZD7 CRD-Fc as target or off-target for specificity test (hFZD8 CRD-Fc and Herceptin). To measure off-target affinity, duplicate phage particle were assayed against BSA to measure non-specific binding. Clones with a phage-binding signal >0.5 and signal-to-noise ratio >10 were considered to be positive clones and were subjected to DNA sequence analysis. General data handling was done using Microsoft Excel 2010 unless otherwise noted.
# In order to investigate the role of FZD7 in intestinal stem cell function, experiments were performed to identify ligands that selectively bind FZD7 CRD. A naïve linear peptide library (4-16 amino acids in length) and a cyclic peptide library were screened via phage display against FZD7 CRD-Fc. Peptides found to bind FZD7 CRD-Fc were then screened via spot phage ELISA against FZD7 CRD-Fc, FZD8 CRD-Fc, and Herceptin to identify candidates that bind FZD7 CRD but not FZD8 CRD or herceptin. The amino acid sequences of candidate FZD7 CRD-binding linear peptides are shown in Table 3 below, and the amino acid sequences of candidate FZD7 CRD-binding cyclic peptides are shown in Table 4.
# Briefly, sixty Fz7-21-derived peptides (see Table 5), each containing at least one random alanine and/or valine/and/or aspartic acid and/or serine substitution, were generated and screened via spot phage ELISA (i.e., as described above) against FZD7 CRD-Fc and Herceptin.
Substance,SIGNAL: NOISE RATIO HERCEPTIN,HERCEPTIN S/W,HERCEPTIN S/N
2 (TYFDDICNLILPWANP) [compound 2],1.2,,
3 (PQDLLDWCHYMIVSSD) [compound 3],1.2,,
4 (ACSYVIDLWNQCLT) [compound 4],1.1,,
6 (DTDLHQWCLWFT) [compound 6],1.1,,
7 (FWMLLQEGFAFWFP) [compound 7],1.3,,
8 (FELLLDLGDLIRLW) [compound 8],1.8,,
9 (ACSYVIDLWNLCLR) [compound 9],1.3,,
10 (ASELHDWCRMMFPW) [compound 10],1.2,,
12 (PPNVHEGCWSMFPW) [compound 12],1.1,,
14 (DTDLLQWCLWFT) [compound 14],1.2,,
17 (GDFWPGSLLWEILV) [compound 17],1.2,,
20 (FLPDQHSHLFLPWGEP) [compound 20],1.1,,
22 (VFVPFSELTSLC) [compound 22],1.1,,
24 (NAFWRDQCLEWFIICL) [compound 24],1.2,,
25 (EHDLLLRAMNSFVLIF) [compound 25],1.4,,
26 (FCENPYIICW) [compound 26],1.1,,
27 (NPPPECFLSK) [compound 27],1.2,,
29 (ERRVCYPWFEVSQP) [compound 29],1.3,,
30 (LSSGKKVSSYWFNFWF) [compound 30],3.8,,
31 (FWFDFWFG) [compound 31],4.1,,
32 (SSDFSGCLSWCDLIFG) [compound 32],1.22,,

Substance,SIGNAL: NOISE RATIO HERCEPTIN,HERCEPTIN S/W,HERCEPTIN S/N
34 (HLSDVCCSDWCDLVFW) [compound 34],0.99,,
35 (TSDFSWCLSWCDLIFW) [compound 35],1.19,,
36 (FDFCTVMPHFIYCPGD) [compound 36],1.13,,
37 (FDFCSVMPHFIYCPGD) [compound 37],1.10,,
38 (HLSDVFCSDWCDLVFW) [compound 38],1.14,,
39 (VAADDLAAWCHVMY) [compound 39],,0.0,1.4
42 (APSDDVAFWCHVMY) [compound 42],,0.0,1.6
43 (APADDVEFWCHVMY) [compound 43],,0.0,1.8
44 (APSDDLEFWCHVMY) [compound 44],,0.0,1.3
45 (APADDLEAWCHVMY) [compound 45],,0.0,1.2
46 (APSDDLEFWCHAMY) [compound 46],,0.0,1.3
47 (VASDDLEAWCHVMY) [compound 47],,0.0,1.4
48 (AAADDLEFWCHVMY) [compound 48],,0.0,1.2
49 (AASDDLAAWCHVMY) [compound 49],,0.0,1.8
50 (AASDDLESWCHVMY) [compound 50],,0.0,1.2
51 (APADDLAFWCHVMY) [compound 51],,0.0,1.3
52 (LPADDLAVWCDVMY) [compound 52],,0.0,1.5
53 (LPSDDLESWCHVMY) [compound 53],,0.0,1.2
54 (AAADDLEVWCHVMY) [compound 54],,0.0,1.4
55 (VAADALEFWCHVMY) [compound 55],,0.0,1.3
56 (APSDDLAAWCHVVY) [compound 56],,0.0,1.2
